Measurements taken from patent US20260022143A1, “Cyclic Peptide Inhibitors of IL-23” (JANSSEN PHARMACEUTICA NV, priority 2022, published 2026).
pIC50: −log10 of the molar value. Structures can show the parent of a compound that is named as a salt. Where two headings read alike, the source gives them in different places. Starred links: 1 amine or outer side, 2 acyl side, 3 side chain; linkers in the order of their positions; H or OH if unused. Positions of bridges follow the written chain, without caps; N, C: chain ends. Non-standard residues stand in square brackets, D forms with d. Residues, ends and D or L forms follow the SMILES beside them. Groups on a side chain read outwards from the residue. *: point of attachment. X21 = O=C([C@H](Cc1cncc(C(F)(F)F)c1)N[*:1])[*:2]; Trp(7-Me) = Cc1cccc2c(C[C@H](N)C(=O)O)c[nH]c12; 2Nal = N[C@@H](Cc1ccc2ccccc2c1)C(=O)O; AEF = NCCOc1ccc(C[C@H](N)C(=O)O)cc1; dNMeY = CN[C@H](Cc1ccc(O)cc1)C(=O)O; PEG6 = NCCOCCOCCOCCOCCOCCOCCC(=O)O; 3Pal = N[C@@H](Cc1cccnc1)C(=O)O; Cit = NC(=O)NCCC[C@H](N)C(=O)O; Lys(Me) = CNCCCC[C@H](N)C(=O)O; αMeL = CC(C)C[C@](C)(N)C(=O)O; Pen = CC(C)(S)[C@H](N)C(=O)O; Thp = NC1(C(=O)O)CCOCC1; Tfa = O=C(C(F)(F)F)*; NHtBu = CC(C)(C)N*; Sar = CNCC(=O)O; X2 = CNCC*

Experiments:
IL-23R = biological target: T1, IL-23R (Homo sapiens, UniProt Q5VWK5); test: IL23R Reporter Assay; type: cell-based; conditions: HEK293 cells containing IL-23R, IL-12RP1 and STAT-inducible firefly luciferase reporter; 10 ng/mL IL-23 (EC90); 5 h at 37° C.; read-out: IL23R Reporter Assay
T1 construct: host or cells: HEK293
T1 sequence (Q5VWK5 24-629): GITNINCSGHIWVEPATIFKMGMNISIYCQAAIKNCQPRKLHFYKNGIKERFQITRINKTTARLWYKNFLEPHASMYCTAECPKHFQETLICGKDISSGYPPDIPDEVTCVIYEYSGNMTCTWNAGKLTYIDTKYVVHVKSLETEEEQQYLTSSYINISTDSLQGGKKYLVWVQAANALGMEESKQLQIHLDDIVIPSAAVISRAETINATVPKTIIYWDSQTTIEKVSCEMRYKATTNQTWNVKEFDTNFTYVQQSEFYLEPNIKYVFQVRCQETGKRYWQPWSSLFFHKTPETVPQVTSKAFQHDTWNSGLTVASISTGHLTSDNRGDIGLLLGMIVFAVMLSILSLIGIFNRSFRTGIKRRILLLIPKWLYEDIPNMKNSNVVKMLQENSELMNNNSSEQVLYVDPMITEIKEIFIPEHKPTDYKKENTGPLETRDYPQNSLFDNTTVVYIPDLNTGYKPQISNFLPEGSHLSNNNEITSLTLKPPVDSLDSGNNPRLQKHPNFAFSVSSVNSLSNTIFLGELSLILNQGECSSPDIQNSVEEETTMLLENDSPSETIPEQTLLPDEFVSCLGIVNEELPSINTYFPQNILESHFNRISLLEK

[1] = Exposed Polar Surface Area (EPSA); type: physicochemical; conditions: SFC on Chirex 3014 column, sample 1 mM DMSO stock
Summary of the method: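 Retention-based polarity: supercritical CO2 with 20 mM ammonium formate in MeOH (5–60%, 20%/min), Chirex 3014 column, 35 °C. Calibrated against 8 standards to give EPSA (Å^2); each sample measured twice.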

CNCCOc1ccc(C[C@H](NC(=O)[C@H]2NC(=O)[C@H](CCCCN(C)C(C)=O)NC(=O)[C@H](Cc3c[nH]c4c(C)cccc34)NC(=O)[C@H]([C@@H](C)O)NC(=O)[C@H](CC(=O)NC)NC(=O)[C@@H](NC(C)=O)C(C)(C)SSC2(C)C)C(=O)N[C@@H](Cc2ccc3ccccc3c2)C(=O)NC2(C(=O)N[C@@H](CCCCN(C)C(C)=O)C(=O)N[C@@H](CC(N)=O)C(=O)N[C@@H](Cc3cccnc3)C(=O)N(C)CC(=O)NC)CCOCC2)cc1 [SEQ ID 67] (Ac-[Pen]D(NHMe)T[Trp(7-Me)][Lys(Me)](Ac)[Pen]Y(X2)[2Nal][Thp][Lys(Me)](Ac)N[3Pal][Sar]-NHMe; disulfide 1-6 (inferred))
pIC50 (IL-23R): 5.98 | EPSA ([1]; listed as 2): 184 Å^2 | EPSA ([1]; read-out: EPSA): 150 A^2

CC(=O)N[C@H](CCCNC(=N)N)C(=O)N[C@@H]1C(=O)N[C@@H](CC(N)=O)C(=O)N[C@@H]([C@@H](C)O)C(=O)N[C@@H](Cc2c[nH]c3c(C)cccc23)C(=O)N[C@@H](CCCNC(N)=O)C(=O)N[C@H](C(=O)N[C@@H](Cc2ccc(OCCN)cc2)C(=O)N[C@@H](Cc2ccc3ccccc3c2)C(=O)N[C@@](C)(CC(C)C)C(=O)N[C@@H](CCC(=O)O)C(=O)N[C@@H](CC(N)=O)C(=O)N[C@H](CCCCN)C(=O)N(C)[C@H](Cc2ccc(O)cc2)C(N)=O)C(C)(C)SSC1(C)C [compound 16, MeCO-r-Pen(3)-N-T-7MeW-Cit-Pen(3)-AEF-2Nal-aMeL-E-N-k-NMeDTyr-CONH2] (Ac-[dR][Pen]NT[Trp(7-Me)][Cit][Pen][AEF][2Nal][αMeL]EN[dK][dNMeY]-NH2; disulfide 2-7)
pIC50 (IL-23R): 7.62 | EPSA ([1]; read-out: EPSA): 180 A^2

CC(=O)N[C@H](CCCNC(=N)N)C(=O)N[C@@H]1C(=O)N[C@@H](CC(N)=O)C(=O)N[C@@H]([C@@H](C)O)C(=O)N[C@@H](Cc2c[nH]c3c(C)cccc23)C(=O)N[C@@H](CCCNC(N)=O)C(=O)N[C@H](C(=O)N[C@@H](Cc2ccc(OCCN)cc2)C(=O)N[C@@H](Cc2ccc3ccccc3c2)C(=O)N[C@@](C)(CC(C)C)C(=O)N[C@@H](CCC(=O)O)C(=O)N[C@@H](CC(N)=O)C(=O)N[C@H](Cc2c[nH]cn2)C(=O)N(C)[C@H](Cc2ccc(O)cc2)C(N)=O)C(C)(C)SSC1(C)C [compound 17, MeCO-r-Pen(3)-N-T-7MeW-Cit-Pen(3)-AEF-2Nal-aMeL-E-N-h-NMeDTyr-CONH2] (Ac-[dR][Pen]NT[Trp(7-Me)][Cit][Pen][AEF][2Nal][αMeL]EN[dH][dNMeY]-NH2; disulfide 2-7)
pIC50 (IL-23R): 7.42 | EPSA ([1]; read-out: EPSA): 186 A^2

CC(=O)NCCCC[C@@H]1NC(=O)[C@H](Cc2c[nH]c3c(C)cccc23)NC(=O)[C@H]([C@@H](C)O)NC(=O)[C@H](CC(N)=O)NC(=O)[C@@H](NC(=O)[C@@H](CCCNC(=N)N)NC(C)=O)C(C)(C)SSC(C)(C)[C@@H](C(=O)N[C@@H](Cc2ccc(OCCN)cc2)C(=O)N[C@@H](Cc2ccc3ccccc3c2)C(=O)NC2(C(=O)N[C@@H](CCC(=O)O)C(=O)N[C@@H](CC(N)=O)C(=O)N[C@@H](Cc3cccnc3)C(=O)N(C)[C@H](Cc3ccc(O)cc3)C(N)=O)CCOCC2)NC1=O [compound 35, MeCO-r-Pen(3)-N-T-7MeW-K(Ac)-Pen(3)-AEF-2Nal-THp-E-N-3Pya-NMeDTyr-CONH2] (Ac-[dR][Pen]NT[Trp(7-Me)]K(Ac)[Pen][AEF][2Nal][Thp]EN[3Pal][dNMeY]-NH2; disulfide 2-7)
pIC50 (IL-23R): 8.47 | EPSA ([1]; read-out: EPSA): 184 A^2

CC(=O)NCCCC[C@@H]1NC(=O)[C@H](Cc2c[nH]c3c(C)cccc23)NC(=O)[C@H]([C@@H](C)O)NC(=O)[C@H](CC(N)=O)NC(=O)[C@@H](NC(=O)[C@@H](CCCCNC(=O)CCOCCOCCOCCOCCOCCOCCNC(C)=O)NC(C)=O)C(C)(C)SSC(C)(C)[C@@H](C(=O)N[C@@H](Cc2ccc(OCCN)cc2)C(=O)N[C@@H](Cc2ccc3ccccc3c2)C(=O)NC2(C(=O)N[C@@H](CCCCNC(C)=O)C(=O)N[C@@H](CC(N)=O)C(=O)N[C@@H](Cc3cccnc3)C(=O)N(C)CC(N)=O)CCOCC2)NC1=O [compound 39] (Ac-[dK]([PEG6-Ac])[Pen]NT[Trp(7-Me)]K(Ac)[Pen][AEF][2Nal][Thp]K(Ac)N[3Pal][Sar]-NH2; disulfide 2-7 (inferred))
pIC50 (IL-23R): 8.26 | EPSA ([1]; read-out: EPSA): 158 A^2

CNC(=O)C[C@@H]1NC(=O)[C@@H](NC(C)=O)C(C)(C)SSC(C)(C)[C@@H](C(=O)N[C@@H](Cc2ccc(OCCN)cc2)C(=O)N[C@@H](Cc2ccc3ccccc3c2)C(=O)NC2(C(=O)N[C@@H](CCCCNC(C)=O)C(=O)N[C@@H](CC(N)=O)C(=O)N[C@@H](Cc3cccnc3)C(=O)N(C)CC(N)=O)CCOCC2)NC(=O)[C@H](CCCCNC(C)=O)NC(=O)[C@H](Cc2c[nH]c3c(C)cccc23)NC(=O)[C@H]([C@@H](C)O)NC1=O [compound 46] (Ac-[Pen]D(NHMe)T[Trp(7-Me)]K(Ac)[Pen][AEF][2Nal][Thp]K(Ac)N[3Pal][Sar]-NH2; disulfide 1-6 (inferred))
pIC50 (IL-23R): 8.49 | EPSA ([1]; read-out: EPSA): 162 A^2

CC(=O)NCCCC[C@@H]1NC(=O)[C@H](Cc2c[nH]c3c(C)cccc23)NC(=O)[C@H]([C@@H](C)O)NC(=O)[C@H](CC(=O)N(C)C)NC(=O)[C@@H](NC(=O)C(F)(F)F)C(C)(C)SSC(C)(C)[C@@H](C(=O)N[C@@H](Cc2ccc(OCCN)cc2)C(=O)N[C@@H](Cc2ccc3ccccc3c2)C(=O)NC2(C(=O)N[C@@H](CCCCNC(C)=O)C(=O)N[C@@H](CC(N)=O)C(=O)N[C@@H](Cc3cccnc3)C(=O)N(C)CC(N)=O)CCOCC2)NC1=O [compound 52, CF3CO-Pen(3)-N(N(Me)2)-T-7MeW-K(Ac)-Pen(3)-AEF-2Nal-THP-K(Ac)-N-3Pya-Sar-CONH2] (Tfa-[Pen]D(NMe2)T[Trp(7-Me)]K(Ac)[Pen][AEF][2Nal][Thp]K(Ac)N[3Pal][Sar]-NH2; disulfide 1-6 (inferred))
pIC50 (IL-23R): 8.34 | EPSA ([1]; read-out: EPSA): 158 A^2

CC(=O)NCCCC[C@@H]1NC(=O)[C@H](Cc2c[nH]c3c(C)cccc23)NC(=O)[C@H]([C@@H](C)O)NC(=O)[C@H](CC(N)=O)NC(=O)[C@@H](NC(=O)C(F)(F)F)C(C)(C)SSC(C)(C)[C@@H](C(=O)N[C@@H](Cc2ccc(OCCN)cc2)C(=O)N[C@@H](Cc2ccc3ccccc3c2)C(=O)NC2(C(=O)N[C@@H](CCCCNC(C)=O)C(=O)N[C@@H](CC(N)=O)C(=O)N[C@@H](Cc3cncc(C(F)(F)F)c3)C(=O)N(C)CC(N)=O)CCOCC2)NC1=O [compound 56] (Tfa-[Pen]NT[Trp(7-Me)]K(Ac)[Pen][AEF][2Nal][Thp]K(Ac)N[X21][Sar]-NH2; disulfide 1-6 (inferred))
pIC50 (IL-23R): 8.24 | EPSA ([1]; read-out: EPSA): 158 A^2

CNC(=O)C[C@@H]1NC(=O)[C@@H](NC(C)=O)C(C)(C)SSC(C)(C)[C@@H](C(=O)N[C@@H](Cc2ccc(OCCNC(C)=O)cc2)C(=O)N[C@@H](Cc2ccc3ccccc3c2)C(=O)NC2(C(=O)N[C@@H](CCCCN(C)C(C)=O)C(=O)N[C@@H](CC(N)=O)C(=O)N[C@@H](Cc3cccnc3)C(=O)N(C)CC(N)=O)CCOCC2)NC(=O)[C@H](CCCCN(C)C(C)=O)NC(=O)[C@H](Cc2c[nH]c3c(C)cccc23)NC(=O)[C@H]([C@@H](C)O)NC1=O [compound 58] (Ac-[Pen]D(NHMe)T[Trp(7-Me)][Lys(Me)](Ac)[Pen][AEF](Ac)[2Nal][Thp][Lys(Me)](Ac)N[3Pal][Sar]-NH2; disulfide 1-6)
pIC50 (IL-23R): 8.37 | EPSA ([1]; read-out: EPSA): 154 A^2

CC(=O)NCCCC[C@H](NC(=O)C1(NC(=O)[C@H](Cc2ccc3ccccc3c2)NC(=O)[C@H](Cc2ccc(OCCN)cc2)NC(=O)[C@H]2NC(=O)[C@H](CCC(=O)NC(C)(C)C)NC(=O)[C@H](Cc3c[nH]c4c(C)cccc34)NC(=O)[C@H]([C@@H](C)O)NC(=O)[C@H](CC(N)=O)NC(=O)[C@@H](NC(=O)C(F)(F)F)C(C)(C)SSC2(C)C)CCOCC1)C(=O)N[C@@H](CC(N)=O)C(=O)N[C@@H](Cc1cccnc1)C(=O)N(C)CC(N)=O [compound 60] (Tfa-[Pen]NT[Trp(7-Me)]E(NHtBu)[Pen][AEF][2Nal][Thp]K(Ac)N[3Pal][Sar]-NH2; disulfide 1-6 (inferred))
pIC50 (IL-23R): 8.46 | EPSA ([1]; read-out: EPSA): 157 A^2

CC(=O)NCCCC[C@@H]1NC(=O)[C@H](Cc2c[nH]c3c(C)cccc23)NC(=O)[C@H]([C@@H](C)O)NC(=O)[C@H](CC(N)=O)NC(=O)[C@@H](NC(=O)C(F)(F)F)C(C)(C)SSC(C)(C)[C@@H](C(=O)N[C@@H](Cc2ccc(OCCN)cc2)C(=O)N[C@@H](Cc2ccc3ccccc3c2)C(=O)NC2(C(=O)N[C@@H](CCCCNC(C)=O)C(=O)N[C@@H](CC(N)=O)C(=O)N[C@@H](Cc3cccnc3)C(=O)N(C)C)CCOCC2)NC1=O [compound 63] (Tfa-[Pen]NT[Trp(7-Me)]K(Ac)[Pen][AEF][2Nal][Thp]K(Ac)N[3Pal]-NMe2; disulfide 1-6 (inferred))
pIC50 (IL-23R): 7.60 | EPSA ([1]; read-out: EPSA): 157 A^2
